Data on 1 compound can be found in patent US11154569B2, “Ruthenium μ-nitrido complexes and their use as calcium uptake inhibitors” (CORNELL UNIVERSITY, priority 2018, dated 2021).

The structures appear in SMILES notation.

One series relates to HeLa cells. In words: Mitochondrial accumulation of ruthenium in HeLa cells (mitochondrial isolation, GFAAS). The conditions noted are these: 50 μM, 24 hours.
The subject of another series is HEK293 cells. In words: Whole cell uptake of ruthenium (GFAAS) in HEK293 cells. The conditions noted are these: 50 μM, 24 hours. It counts as cell-based, human. As for the experimental part:
HEK293 cells were grown to near confluence in 75 cm^2 dishes. […] The cells were then treated with culture media containing 50 μM of the complex and incubated at 37° C. for 24 hours. The cells were washed with 1 mL of PBS and harvested using 0.05% trypsin. The cells were pelleted by centrifugation, re-suspended in 1 mL of PBS, and pelleted again. The washing and pelleting step was repeated a total of three times, after which the supernatant was removed and the cells were suspended in 500 μL of lysis buffer containing 1% w/v 3-[3-cholamidopropyl)dimethylammonio]-1-propanesulfonate) (CHAPS), 5 mM ethylenediamine tetraacetic acid (EDTA), and 50 mM tris(hydroxymethyl)aminomethane (Tris) and 100 mM NaCl (pH=7.4). The suspension was vortexed for 30 seconds and incubated on ice for 45 minutes. Control cells not treated with the complexes were handled identically to the treated cells to correct for ruthenium present in the cells, and control dishes were incubated with the complex in the absence of cells to correct for non-specific adsorption of ruthenium to the plastic. If needed, samples were stored in −80° C. until analysis. Ruthenium and protein content of the lysates were determined as described above.

A further series is described as follows: Water solubility. It counts as physicochemical.

Experimental for HeLa cells: Approximately 1×10^6 HeLa cells were seeded in 75 cm^2 dishes and allowed to adhere overnight. The following day, the cell culture media was removed, and the cells were washed with 3 mL of PBS before treatment with media containing 50 μM of the complex. After 24 hours, the culture media was removed, and the cell monolayer was washed with 3 mL of PBS before the cells were harvested by trypsinization. The cell suspension was centrifuged, and the resulting pellet was resuspended in 3 ml, of PBS and centrifuged again to remove extracellular ruthenium. This washing step was repeated a total of three times. […] The ruthenium concentration in each sample was determined by GFAAS and was normalized to the protein content of the lysate, which was determined using the Bicinchoninic Acid Protein Assay Kit. […] Results were calculated as the mass ratio of total ruthenium to protein (pg/μg) in each sample±standard deviation of three independent trials. […]
To determine the abilities of the complexes to accumulate in the mitochondria, HeLa cells were treated with C-1, C-2 or C-3 (50 μM) in culture media for 24 hours, and the mitochondria were isolated following modified literature procedures (e.g., A. C. Komor et al., J. Am Chem. Soc. 2012, 134, 19223-19233). Both the mitochondrial and extramitochondrial fractions were analyzed for ruthenium content.

By solubility is commonly meant how much of the substance goes into solution per volume. As to `N.N.N.N.N.N.N.N.[Cl-].[Cl-].[N-3].[Ru+4].[Ru+4]` [C-2, [Ru2(μ-N)(NH3)8Cl2]Cl3], in the series with HeLa cells, the “concentration in the mitochondria compared to C-1 and C-3” value is “greater than three-fold higher concentrations”. Also, in the series with HEK293 cells, the “cellular uptake relative to C-1” value was determined as 10 times and the “cellular uptake relative to C-3” value is listed as “over twice as effectively as C-3”. In “Water solubility”, the solubility came to 1000 µg/mL.
